Numbered stars: 1 amine (or outer) side, 2 acyl side, 3 side chain; on linkers, the order of the positions; unused ones are H or OH. Square brackets hold non-standard residues; d marks the D form. Peptide text beside a SMILES is read from it. * marks the point of attachment. X2 = C[C@@H](O)[C@H](O)[C@H](N[*:1])C(=O)[*:2]; X1 = O=C([C@@H](N[*:1])[C@@H](O)CCO)[*:2]; NMeW = CN[C@@H](Cc1c[nH]c2ccccc12)C(=O)O; NMeI = CC[C@H](C)[C@H](NC)C(=O)O; NMeT = CN[C@H](C(=O)O)[C@@H](C)O; NMeQ = CN[C@@H](CCC(N)=O)C(=O)O; NMeV = CN[C@H](C(=O)O)C(C)C; Valol = CC(C)[C@@H](CO)N*

The target in the first assay is T1, Membrane-associated guanylate kinase, WW and PDZ domain-containing protein 3 (Homo sapiens, UniProt Q5TCQ9).
T1 sequence (Q5TCQ9 whole entry): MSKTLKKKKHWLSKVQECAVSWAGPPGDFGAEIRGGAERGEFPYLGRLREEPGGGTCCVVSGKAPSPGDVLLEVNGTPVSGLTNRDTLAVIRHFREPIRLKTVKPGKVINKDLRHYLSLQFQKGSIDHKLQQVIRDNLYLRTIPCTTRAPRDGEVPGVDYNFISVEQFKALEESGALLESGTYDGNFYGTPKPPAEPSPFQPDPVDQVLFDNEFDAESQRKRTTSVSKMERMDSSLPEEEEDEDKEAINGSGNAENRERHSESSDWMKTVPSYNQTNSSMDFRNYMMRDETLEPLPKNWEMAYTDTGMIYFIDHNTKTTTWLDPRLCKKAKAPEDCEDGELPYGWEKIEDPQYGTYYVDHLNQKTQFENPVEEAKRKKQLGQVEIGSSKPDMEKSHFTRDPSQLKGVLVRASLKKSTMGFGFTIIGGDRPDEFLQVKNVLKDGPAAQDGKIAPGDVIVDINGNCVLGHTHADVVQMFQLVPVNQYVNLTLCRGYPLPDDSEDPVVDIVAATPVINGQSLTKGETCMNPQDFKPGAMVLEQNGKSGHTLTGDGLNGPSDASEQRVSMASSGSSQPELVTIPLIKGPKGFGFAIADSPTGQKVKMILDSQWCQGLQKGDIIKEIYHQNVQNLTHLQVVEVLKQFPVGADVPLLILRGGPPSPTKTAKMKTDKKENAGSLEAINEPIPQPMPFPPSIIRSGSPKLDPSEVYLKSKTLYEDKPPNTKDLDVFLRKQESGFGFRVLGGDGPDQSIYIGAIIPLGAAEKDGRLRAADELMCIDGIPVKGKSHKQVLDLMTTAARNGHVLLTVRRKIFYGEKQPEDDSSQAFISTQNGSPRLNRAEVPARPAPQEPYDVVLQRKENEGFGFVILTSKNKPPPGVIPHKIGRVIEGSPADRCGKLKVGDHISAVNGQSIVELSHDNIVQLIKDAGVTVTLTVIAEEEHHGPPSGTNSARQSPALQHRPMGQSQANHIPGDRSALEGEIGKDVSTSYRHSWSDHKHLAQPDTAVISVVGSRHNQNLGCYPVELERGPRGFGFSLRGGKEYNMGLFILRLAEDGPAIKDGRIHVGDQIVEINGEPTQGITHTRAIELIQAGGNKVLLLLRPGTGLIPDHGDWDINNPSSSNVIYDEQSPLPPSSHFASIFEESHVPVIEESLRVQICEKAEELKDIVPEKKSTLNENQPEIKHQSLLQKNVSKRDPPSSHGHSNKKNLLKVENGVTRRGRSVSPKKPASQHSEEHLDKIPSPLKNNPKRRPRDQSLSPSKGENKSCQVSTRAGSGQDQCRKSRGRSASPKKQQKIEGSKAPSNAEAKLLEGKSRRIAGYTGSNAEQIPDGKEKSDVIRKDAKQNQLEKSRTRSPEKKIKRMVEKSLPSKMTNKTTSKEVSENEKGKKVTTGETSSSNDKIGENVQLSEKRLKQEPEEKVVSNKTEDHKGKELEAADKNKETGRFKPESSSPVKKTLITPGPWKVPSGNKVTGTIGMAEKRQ
The experiment in a line: Inhibitory concentration for MAGI-3 PDZ2 domain; ND denotes not detected.
Take `CC[C@H](C)[C@H](NC(=O)[C@H](CCC(N)=O)NC(=O)[C@@H](NC(C)=O)[C@@H](C)O)C(=O)N[C@H](C(=O)N[C@@H](Cc1c[nH]c2ccccc12)C(=O)N[C@H](CO)C(C)C)[C@@H](C)O` (Ac-TQITW-Valol): the IC50 entry is reported as “Not detected”. As to `CCC(O)[C@H](O)C(NC(=O)[C@@H](NC(=O)[C@H](CCC(N)=O)NC(=O)[C@@H](NC(C)=O)[C@@H](C)O)[C@@H](C)CC)C(=O)N[C@@H](Cc1c[nH]c2ccccc12)C(=O)N[C@H](C(=O)O)C(C)C` (single isomer, unassigned), the IC50 result is “Not detected”. `CC[C@H](C)[C@H](NC(=O)[C@H](CCC(N)=O)NC(=O)[C@@H](NC(C)=O)[C@@H](C)O)C(=O)N[C@H](C(=O)N[C@@H](Cc1c[nH]c2ccccc12)C(=O)N(C)[C@H](C(=O)O)C(C)C)[C@@H](C)O` (Ac-TQITW[NMeV]-OH): the IC50 result is given as “Not detected”. Still for that read-out and setting: the value for `CC[C@H](C)[C@H](NC(=O)[C@H](CCC(N)=O)NC(=O)[C@@H](NC(C)=O)[C@H](C)O)C(=O)NC(C(=O)N[C@@H](Cc1c[nH]c2ccccc12)C(=O)N[C@H](C(=O)O)C(C)C)[C@@H](O)C(C)(C)O` (single isomer, unassigned) was “Not detected”; that for `CC[C@H](C)[C@H](NC(=O)[C@H](CCC(N)=O)NC(=O)[C@@H](NC(C)=O)[C@@H](C)O)C(=O)N[C@H](C(=O)N[C@@H](Cc1c[nH]c2ccccc12)C(=O)N[C@H](C(=O)O)C(C)C)[C@@H](O)[C@@H](C)O` (Ac-TQI[X2]WV-OH) was “Not detected”; that for `CC[C@H](C)[C@H](NC(=O)[C@H](CCC(N)=O)NC(=O)[C@@H](NC(C)=O)[C@@H](C)O)C(=O)N[C@H](C(=O)N[C@@H](Cc1c[nH]c2ccccc12)C(=O)N[C@H](C(=O)O)C(C)C)[C@@H](O)CCO` (Ac-TQI[X1]WV-OH) was “Not detected”.

A further assay has as its target T1, Membrane-associated guanylate kinase, WW and PDZ domain-containing protein 3. As to the kind of experiment: Inhibitory concentration for MAGI-3 PDZ2 domain.
Regarding Ac-TQITWV-OH, half-maximal inhibition (IC50) required 5.2 µM. This counts as single-digit micromolar. Turning to Ac-HTQITWV-OH, the IC50 is 4.1 µM. The IC50 values of the last two molecules are within 1.5-fold of each other.

Turning to `CC[C@H](C)[C@H](NC(=O)[C@H](CCC(N)=O)N(C)C(=O)[C@@H](NC(C)=O)[C@@H](C)O)C(=O)N[C@H](C(=O)N[C@@H](Cc1c[nH]c2ccccc12)C(=O)N[C@H](C(=O)O)C(C)C)[C@@H](C)O` (Ac-T[NMeQ]ITWV-OH), the IC50 amounted to 9.8 µM. In turn, `CC[C@H](C)[C@H](NC(=O)[C@H](CCC(N)=O)NC(=O)[C@@H](NC(C)=O)[C@@H](C)O)C(=O)N[C@H](C(=O)N(C)[C@@H](Cc1c[nH]c2ccccc12)C(=O)N[C@H](C(=O)O)C(C)C)[C@@H](C)O` (Ac-TQIT[NMeW]V-OH) gave an IC50 of 10.6 µM. As for `CC[C@H](C)[C@H](NC(=O)[C@H](CCC(N)=O)NC(=O)[C@@H](NC(C)=O)[C@H](C)O)C(=O)N[C@@H](C(=O)N[C@@H](Cc1c[nH]c2ccccc12)C(=O)N[C@H](C(=O)NO)C(C)C)[C@H](C)O`, the IC50 was determined as 42.1 µM. Compared with the last molecule, the IC50 is about 4-fold higher.

As for `CC[C@H](C)[C@H](NC(=O)[C@H](CCC(N)=O)NC(=O)[C@@H](NC(C)=O)[C@@H](C)O)C(=O)N(C)[C@H](C(=O)N[C@@H](Cc1c[nH]c2ccccc12)C(=O)N[C@H](C(=O)O)C(C)C)[C@@H](C)O` (Ac-TQI[NMeT]WV-OH), the midpoint of inhibition, the IC50, lay at 29 µM. As for Ac-QITWV-OH, it took 4.5 µM to reach half-maximal inhibition (IC50). On the same count and under the same terms, the value for H-PFDEDQHTQIAKV-OH [PFDEDQHTQIAKV] was 14.4 µM; that for `CC[C@H](C)[C@@H](C(=O)N[C@H](C(=O)N[C@@H](Cc1c[nH]c2ccccc12)C(=O)N[C@H](C(=O)O)C(C)C)[C@@H](C)O)N(C)C(=O)[C@H](CCC(N)=O)NC(=O)[C@@H](NC(C)=O)[C@@H](C)O` (Ac-TQ[NMeI]TWV-OH) was 20.4 µM; that for `CC[C@H](C)[C@H](NC(=O)[C@H](CCC(N)=O)NC(=O)[C@@H](NC(C)=O)[C@@H](C)O)C(=O)NC(C(=O)N[C@@H](Cc1c[nH]c2ccccc12)C(=O)N[C@H](C(=O)O)C(C)C)[C@@H](O)CO` (single isomer, unassigned) was 5.1 µM. As for `CC[C@H](C)[C@H](NC(C)=O)C(=O)N[C@H](C(=O)N[C@@H](Cc1c[nH]c2ccccc12)C(=O)N[C@H](C(=O)O)C(C)C)[C@@H](C)O` (Ac-ITWV-OH), 14.8 µM corresponded to half-maximal inhibition (IC50). This IC50 is about 2.9-fold higher than that of the molecule before.

H-PFDEDQHTQITWV-OH yielded an IC50 of 0.74 µM. Same read-out and setting: the value for `CC[C@H](C)[C@H](NC(=O)[C@H](CCC(N)=O)NC(=O)[C@@H](NC(C)=O)[C@H](C)O)C(=O)NC(C(=O)N[C@@H](Cc1cn(C)c2ccccc12)C(=O)N[C@H](C(=O)O)C(C)C)[C@H](C)O` (single isomer, unassigned) was 34 µM.

A further assay has the same target. The experiment in a line: Dissociation constant for binding to MAGI-3 PDZ2 domain.
For the molecule H-PFDEDQHTQITKV-OH, the Kd came out at 1000 nM. For H-PFDEDQHTQITWV-OH, binding was characterised by a dissociation constant (Kd) of 20 nM.
